In patent US10131652B2, “Pyrimidinyloxy benzene derivatives as herbicides” (E. I. DU PONT DE NEMOURS AND COMPANY, priority 2014, dated 2018):

Legend:
Test in all cases: Test D pre-/postemergence plant response
Type in all cases: in vivo
[1] = test system: oilseed rape (Brassica napus)
Method in brief: (§1)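 Preemergence: seeds in loam/sand blend treated with test chemicals in non-phytotoxic solvent with surfactant; postemergence: plants at 2–18 cm (1- to 4-leaf stage) in peat-based medium sprayed likewise. Greenhouse 13 to 15 days, then visual rating vs controls, 0 (no effect) to 100 (complete control).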

[2] = test system: giant foxtail (Setaria faberii)
Method in brief: as §1

[3] = test system: barnyardgrass (Echinochloa crus-galli)
Method in brief: as §1

[4] = test system: blackgrass (Alopecurus myosuroides)
Method in brief: as §1

[5] = test system: large (Lg) crabgrass (Digitaria sanguinalis)
Method in brief: as §1

[6] = test system: Italian ryegrass (Lolium multiflorum)
Method in brief: as §1

[7] = test system: lambsquarters (Chenopodium album)
Method in brief: as §1

[8] = test system: morningglory (Ipomoea coccinea)
Method in brief: as §1

[9] = test system: waterhemp (common waterhemp, Amaranthus rudis)
Method in brief: as §1

[10] = test system: yellow nutsedge (Cyperus esculentus)
Method in brief: as §1

[11] = test system: winter wheat (Triticum aestivum)
Method in brief: as §1

corn (Zea mays) = test system: corn (Zea mays)
Method in brief: as §1

[12] = test system: velvetleaf (Abutilon theophrasti)
Method in brief: as §1

soybean (Glycine max) = test system: soybean (Glycine max)
Method in brief: as §1

[13] = test system: galium (catchweed bedstraw, Galium aparine)
Method in brief: as §1

[14] = test system: ragweed (common ragweed, Ambrosia elatior)
Method in brief: as §1

[15] = test system: johnsongrass (Sorghum halepense)
Method in brief: as §1

[16] = test system: pigweed (Amaranthus retroflexus)
Method in brief: as §1

[17] = Postemergence, 31 g ai/ha, scale 0 to 100 (0 no effect, 100 complete control)
[18] = Postemergence, 62 g ai/ha, scale 0 to 100, 0 no effect, 100 complete control
[19] = Postemergence, 125 g ai/ha, scale 0 to 100, 0 no effect, 100 complete control
[20] = Preemergence, 16 g ai/ha, scale 0 to 100 (0 no effect, 100 complete control)
[21] = Preemergence, 31 g ai/ha, scale 0 to 100 (0 no effect, 100 complete control)
[22] = Preemergence, 62 g ai/ha, scale 0 to 100 (0 no effect, 100 complete control)

## Clc1cnc(Oc2ccccc2-c2cc(C3CC3)on2)nc1 [Compound 183]
[1]; Postemergence, 16 g ai/ha
  Plant response rating (scale 0 to 100), Oilseed Rape: 5
[1]; [17]
  Oilseed Rape plant response rating: 85
[1]; [18]
  Oilseed Rape plant response rating: 100
[1]; [19]
  Plant response rating, Oilseed Rape: 100
[1]; Preemergence, 125 g ai/ha
  Plant response rating (scale 0 to 100), Oilseed Rape: 100
[1]; [20]
  Plant response rating, Oilseed Rape: 50
[1]; [21]
  Plant response rating, Oilseed Rape: 100
[1]; [22]
  Plant response rating, Oilseed Rape: 100
[2]; Postemergence, 16 g ai/ha
  Plant response rating (scale 0 to 100), Foxtail, Giant: 5
[2]; [17]
  Foxtail, Giant plant response rating: 5
[2]; [18]
  Plant response rating, Foxtail, Giant: 5
[2]; [19]
  Plant response rating, Foxtail, Giant: 5
[2]; Preemergence, 125 g ai/ha
  Plant response rating (scale 0 to 100), Foxtail, Giant: 100
[2]; [20]
  Plant response rating, Foxtail, Giant: 5
[2]; [21]
  Plant response rating, Foxtail, Giant: 35
[2]; [22]
  Plant response rating, Foxtail, Giant: 80
[3]; Postemergence, 16 g ai/ha
  Plant response rating (scale 0 to 100), Barnyardgrass: 5
[3]; [17]
  Barnyardgrass plant response rating: 5
[3]; [18]
  Plant response rating, Barnyardgrass: 5
[3]; [19]
  Plant response rating, Barnyardgrass: 5
[3]; Preemergence, 125 g ai/ha
  Plant response rating (scale 0 to 100), Barnyardgrass: 90
[3]; [20]
  Plant response rating, Barnyardgrass: 5
[3]; [21]
  Plant response rating, Barnyardgrass: 5
[3]; [22]
  Plant response rating, Barnyardgrass: 30
[4]; Postemergence, 16 g ai/ha
  Plant response rating (scale 0 to 100), Blackgrass: 0
[4]; [17]
  Blackgrass plant response rating: 5
[4]; [18]
  Plant response rating, Blackgrass: 5
[4]; [19]
  Plant response rating, Blackgrass: 20
[4]; Preemergence, 125 g ai/ha
  Plant response rating (scale 0 to 100), Blackgrass: 50
[4]; [20]
  Plant response rating, Blackgrass: 0
[4]; [21]
  Plant response rating, Blackgrass: 0
[4]; [22]
  Plant response rating, Blackgrass: 0
[5]; Postemergence, 16 g ai/ha
  Plant response rating (scale 0 to 100), Crabgrass, Large: 5
[5]; [17]
  Crabgrass, Large plant response rating: 5
[5]; [18]
  Plant response rating, Crabgrass, Large: 5
[5]; [19]
  Plant response rating, Crabgrass, Large: 10
[5]; Preemergence, 125 g ai/ha
  Plant response rating (scale 0 to 100), Crabgrass, Large: 100
[5]; [20]
  Plant response rating, Crabgrass, Large: 5
[5]; [21]
  Plant response rating, Crabgrass, Large: 70
[5]; [22]
  Plant response rating, Crabgrass, Large: 98
[6]; Postemergence, 16 g ai/ha
  Plant response rating (scale 0 to 100), Ryegrass, Italian: 0
[6]; [17]
  Ryegrass, Italian plant response rating: 0
[6]; [18]
  Ryegrass, Italian plant response rating: 5
[6]; [19]
  Plant response rating, Ryegrass, Italian: 10
[6]; Preemergence, 125 g ai/ha
  Plant response rating (scale 0 to 100), Ryegrass, Italian: 50
[6]; [20]
  Plant response rating, Ryegrass, Italian: 0
[6]; [21]
  Plant response rating, Ryegrass, Italian: 0
[6]; [22]
  Plant response rating, Ryegrass, Italian: 15
[7]; Postemergence, 16 g ai/ha
  Plant response rating (scale 0 to 100), Lambsquarters: 35
[7]; [17]
  Lambsquarters plant response rating: 65
[7]; [18]
  Lambsquarters plant response rating: 65
[7]; [19]
  Plant response rating, Lambsquarters: 75
[7]; Preemergence, 125 g ai/ha
  Plant response rating (scale 0 to 100), Lambsquarters: 100
[7]; [20]
  Plant response rating, Lambsquarters: 80
[7]; [21]
  Plant response rating, Lambsquarters: 85
[7]; [22]
  Plant response rating, Lambsquarters: 90
[8]; Postemergence, 16 g ai/ha
  Plant response rating (scale 0 to 100), Morningglory: 65
[8]; [17]
  Morningglory plant response rating: 75
[8]; [18]
  Morningglory plant response rating: 90
[8]; [19]
  Plant response rating, Morningglory: 90
[8]; Preemergence, 125 g ai/ha
  Plant response rating (scale 0 to 100), Morningglory: 40
[8]; [20]
  Plant response rating, Morningglory: 0
[8]; [21]
  Plant response rating, Morningglory: 0
[8]; [22]
  Plant response rating, Morningglory: 5
[9]; Postemergence, 16 g ai/ha
  Plant response rating (scale 0 to 100), Waterhemp: 80
[9]; [17]
  Waterhemp plant response rating: 80
[9]; [18]
  Waterhemp plant response rating: 75
[9]; [19]
  Plant response rating, Waterhemp: 98
[9]; Preemergence, 125 g ai/ha
  Plant response rating (scale 0 to 100), Waterhemp: 100
[9]; [20]
  Plant response rating, Waterhemp: 10
[9]; [21]
  Plant response rating, Waterhemp: 100
[9]; [22]
  Plant response rating, Waterhemp: 95
[10]; Postemergence, 16 g ai/ha
  Plant response rating (scale 0 to 100), Nutsedge, Yellow: 5
[10]; [17]
  Nutsedge, Yellow plant response rating: 5
[10]; [18]
  Nutsedge, Yellow plant response rating: 5
[10]; [19]
  Plant response rating, Nutsedge, Yellow: 5
[10]; Preemergence, 125 g ai/ha
  Plant response rating (scale 0 to 100), Nutsedge, Yellow: 5
[10]; [20]
  Plant response rating, Nutsedge, Yellow: 0
[10]; [21]
  Plant response rating, Nutsedge, Yellow: 0
[10]; [22]
  Plant response rating, Nutsedge, Yellow: 0
[11]; Postemergence, 16 g ai/ha
  Plant response rating (scale 0 to 100), Wheat: 5
[11]; [17]
  Wheat plant response rating: 20
[11]; [18]
  Wheat plant response rating: 30
[11]; [19]
  Plant response rating, Wheat: 30
[11]; Preemergence, 125 g ai/ha
  Plant response rating (scale 0 to 100), Wheat: 0
[11]; [20]
  Plant response rating, Wheat: 0
[11]; [21]
  Plant response rating, Wheat: 0
[11]; [22]
  Plant response rating, Wheat: 0
Corn (Zea mays); Postemergence, 16 g ai/ha
  Plant response rating (scale 0 to 100), Corn: 10
Corn (Zea mays); [17]
  Corn plant response rating: 15
Corn (Zea mays); [18]
  Plant response rating, Corn: 15
Corn (Zea mays); [19]
  Plant response rating, Corn: 20
Corn (Zea mays); Preemergence, 125 g ai/ha
  Plant response rating (scale 0 to 100), Corn: 5
Corn (Zea mays); [20]
  Plant response rating, Corn: 0
Corn (Zea mays); [21]
  Plant response rating, Corn: 0
Corn (Zea mays); [22]
  Plant response rating, Corn: 0
[12]; Postemergence, 16 g ai/ha
  Plant response rating (scale 0 to 100), Velvetleaf: 30
[12]; [17]
  Velvetleaf plant response rating: 55
[12]; [18]
  Velvetleaf plant response rating: 55
[12]; [19]
  Plant response rating, Velvetleaf: 55
[12]; Preemergence, 125 g ai/ha
  Plant response rating (scale 0 to 100), Velvetleaf: 100
[12]; [20]
  Plant response rating, Velvetleaf: 40
[12]; [21]
  Plant response rating, Velvetleaf: 80
[12]; [22]
  Plant response rating, Velvetleaf: 90
Soybean (Glycine max); Postemergence, 16 g ai/ha
  Plant response rating (scale 0 to 100), Soybean: 65
Soybean (Glycine max); [17]
  Soybean plant response rating: 55
Soybean (Glycine max); [18]
  Soybean plant response rating: 75
Soybean (Glycine max); [19]
  Plant response rating, Soybean: 90
Soybean (Glycine max); Preemergence, 125 g ai/ha
  Plant response rating (scale 0 to 100), Soybean: 80
Soybean (Glycine max); [20]
  Plant response rating, Soybean: 0
Soybean (Glycine max); [21]
  Plant response rating, Soybean: 10
Soybean (Glycine max); [22]
  Plant response rating, Soybean: 35
[13]; Postemergence, 16 g ai/ha
  Plant response rating (scale 0 to 100), Galium: 65
[13]; [17]
  Galium plant response rating: 65
[13]; [18]
  Plant response rating, Galium: 95
[13]; [19]
  Plant response rating, Galium: 95
[13]; Preemergence, 125 g ai/ha
  Plant response rating (scale 0 to 100), Galium: 95
[13]; [20]
  Plant response rating, Galium: 50
[13]; [21]
  Plant response rating, Galium: 50
[13]; [22]
  Plant response rating, Galium: 95
[14]; Postemergence, 16 g ai/ha
  Plant response rating (scale 0 to 100), Ragweed: 15
[14]; [17]
  Ragweed plant response rating: 35
[14]; [18]
  Ragweed plant response rating: 60
[14]; [19]
  Plant response rating, Ragweed: 65
[14]; Preemergence, 125 g ai/ha
  Plant response rating (scale 0 to 100), Ragweed: 10
[14]; [20]
  Plant response rating, Ragweed: 0
[14]; [21]
  Plant response rating, Ragweed: 0
[14]; [22]
  Plant response rating, Ragweed: 0
[15]; Postemergence, 16 g ai/ha
  Plant response rating (scale 0 to 100), Johnsongrass: 0
[15]; [17]
  Johnsongrass plant response rating: 5
[15]; [18]
  Plant response rating, Johnsongrass: 5
[15]; [19]
  Plant response rating, Johnsongrass: 10
[15]; Preemergence, 125 g ai/ha
  Plant response rating (scale 0 to 100), Johnsongrass: 45
[15]; [20]
  Plant response rating, Johnsongrass: 0
[15]; [21]
  Plant response rating, Johnsongrass: 5
[15]; [22]
  Plant response rating, Johnsongrass: 20
[16]; Postemergence, 16 g ai/ha
  Plant response rating (scale 0 to 100), Pigweed: 55
[16]; [17]
  Pigweed plant response rating: 85
[16]; [18]
  Pigweed plant response rating: 85
[16]; [19]
  Plant response rating, Pigweed: 95
[16]; Preemergence, 125 g ai/ha
  Plant response rating (scale 0 to 100), Pigweed: 100
[16]; [20]
  Plant response rating, Pigweed: 50
[16]; [21]
  Plant response rating, Pigweed: 60
[16]; [22]
  Plant response rating, Pigweed: 100
